From patent US20230085686A1, “Multicompartement hydrogel fibre their preparation and uses thereof” (Association For The Advancement Of Tissue Engineering And …, priority 2020, published 2023)

Test system: Melanoma cells of the Sk-MEL-28 cell line
Experiment: Drug test with doxorubicin in modular cancer/BM/stroma ribbon fibres, Calcein AM / Propidium Iodide viability
Type: cell-based, human
Settings: 1 μM Doxorubicin, 24 h treatment
Text: Melanoma cells of the Sk-MEL-28 (ATCC) cell line were encapsulated in the GG/GelMA compartment and human dermal fibroblasts (hDFs) were encapsulated in the GG compartment, both representing the cancer and stroma, respectively, separated by the basement-membrane-mimicking GelTrex/HA. […] In order to track the different cell types, these were stained with CellBrite Green and Orange (Biotium) according to the manufacturer's instructions. […] With this model, melanoma cells were included in the cancer compartment, and dermal fibroblasts within the stromal compartment, both separated by a GelTrex BM in a unique melanoma-on-a-fibre structure. Fibres with tracked cells were observed under an Inverted Confocal Laser Scanning Microscope (Leica), throughout one week of culture.
For the drug tests, fibroblasts were stained blue prior to encapsulation using CellTracker blue CMAC Dye (7-amino 4-chloromethylcoumarin, Molecular Probes) according to manufacturer's instructions. These were then integrated in the fibres together with the cancer cells, and all modular fibres were produced. 24 h after fabrication, fibres were incubated with either culture medium (no treatment) or culture medium containing 1 μM of Doxorubicin (Carbosynth). One day after treatment, samples were incubated with medium containing 1:1000 dilution of Calcein AM (Thermofisher) and 1 μg/mL Propidium Iodide (Molecular Probes) for 30 mins at 37° C., 5% CO2, for viability assessment. Images of the fibres were acquired in the Axio Observer inverted Microscope (Zeiss), and a cell profiler pipeline was used to derive the numbers of live and dead cells using the blue staining to distinguish fibroblasts from melanoma cells. Similarly, 2D controls were obtained by simply seeding the cells individually or in co-culture in 24 well-plates at a density of 20×10^3 cells per well (10×10^3 cells of each type in the case of co-cultures). 2D controls were then processed in the same way as the fibres. […]

COc1cccc2c1C(=O)c1c(O)c3c(c(O)c1C2=O)C[C@@](O)(C(=O)CO)C[C@@H]3O[C@H]1C[C@H](N)[C@H](O)[C@H](C)O1 [Doxorubicin]
cancer cell viability vs. the control (cancer-only fibres): significant drop in viability
cancer cell viability vs. the control (cancer/stroma fibres (no BM)): no longer significant
numbers of live cancer cells upon treatment (full cancer/BM/stroma fibres): numbers of live cancer cells can improve
